Data taken from patent publication US20210085640A1, “ACYLATED CATECHIN POLYPHENOLS AND METHODS OF THEIR USE FOR THE TREATMENT OF CANCER” (Flagship Pioneering Innovations V, Inc., priority 2018, published 2021).
pIC50: −log10 of the molar value.

Columns and labels:
Type in all cases: cell-based
A-431 skin cancer cells = assay: Cancer cell survival (CellTiter-Glo), A-431; conditions: Homo sapiens, A-431 cells, 72 h
Method in brief: (§1)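 Cells were seeded at 4×10^3 cells/well and left overnight at 37 C, 5% CO2, then exposed in triplicate to nine compound concentrations for 72 h. Dosing solutions were made at 10× final (1 μM-10 mM fatty acids, 100 nM-1 mM other compounds). CellTiter-Glo luminescence, normalised to untreated and medium-only wells, gave IC50.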

[1] = system: HCT 116 colorectal cancer cells; assay: Cancer cell survival (CellTiter-Glo), HCT 116; conditions: Homo sapiens, HCT 116 cells, 72 h
Method in brief: as §1

T24 bladder cancer cells = assay: Cancer cell survival (CellTiter-Glo), T24; conditions: Homo sapiens
Method in brief: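 T24 cells seeded at 4×10^3 cells/well overnight, then exposed 72 h at 37 C, 5% CO2 to nine concentrations in triplicate. Survival measured by CellTiter-Glo luminescence relative to untreated and medium controls; IC50 derived.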

AGS stomach cancer cells = assay: Cancer cell survival (CellTiter-Glo), AGS
Method in brief: as §1

[2] = system: PC-3 prostate cancer cells; assay: Cancer cell survival (CellTiter-Glo), PC-3; conditions: Homo sapiens, PC-3 cells, 72 h
Method in brief: as §1

[3] = system: Daudi lymphoma cancer cells; assay: Cancer cell survival (CellTiter-Glo), Daudi; conditions: Homo sapiens, 72 h
Method in brief: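 Daudi cells (4×10^3/well) were exposed for 72 h at 37 °C to nine concentrations of compound, added as 10× solutions spanning 1 μM–10 mM (fatty acids) or 100 nM–1 mM (others). CellTiter-Glo luminescence gave % survival versus untreated, medium-blank corrected; IC50 derived.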

MCF7 breast cancer cells = assay: Cancer cell survival (CellTiter-Glo), MCF7; conditions: Homo sapiens, 72 h
Method in brief: as §1

A549 lung cancer cells = assay: Cancer cell survival (CellTiter-Glo), A549; conditions: Homo sapiens, 72 h
Method in brief: as §1

[4] = 101 nM, read-out: Cell survival at given concentration
[5] = 318 nM, read-out: Cell survival at given concentration
[6] = 1 μM, read-out: Cell survival at given concentration
[7] = 3 μM, read-out: Cell survival at given concentration
[8] = 10 μM, read-out: Cell survival at given concentration
[9] = 32 μM, read-out: Cell survival at given concentration
[10] = 100 μM, read-out: Cell survival at given concentration
[11] = 316 μM, read-out: Cell survival at given concentration
[12] = 1000 μM, read-out: Cell survival at given concentration

Compound: Oc1cc(O)c2c(c1)O[C@H](c1cc(O)c(O)c(O)c1)[C@H](O)C2 [EGC, epigallocatechin]
- viability at 0.101 µM (A-431 skin cancer cells; [4]): 103%
- viability at 0.318 µM (A-431 skin cancer cells; [5]): 103%
- viability at 1 µM (A-431 skin cancer cells; [6]): 102%
- viability at 3 µM (A-431 skin cancer cells; [7]): 102%
- viability at 10 µM (A-431 skin cancer cells; [8]): 98%
- viability at 32 µM (A-431 skin cancer cells; [9]): 96%
- viability at 100 µM (A-431 skin cancer cells; [10]): 95%
- viability at 316 µM (A-431 skin cancer cells; [11]): 60%
- viability at 1000 µM (A-431 skin cancer cells; [12]): 0%
- pIC50 (A-431 skin cancer cells; Table 9.1): 3.41
- viability at 0.101 µM [1, 4]: 99%
- viability at 0.318 µM [1, 5]: 98%
- viability at 1 µM [1, 6]: 100%
- viability at 3 µM [1, 7]: 101%
- viability at 10 µM [1, 8]: 99%
- viability at 32 µM [1, 9]: 97%
- viability at 100 µM [1, 10]: 1%
- viability at 316 µM [1, 11]: 0%
- viability at 1000 µM [1, 12]: 0%
- pIC50 ([1]; Table 6.1): 4.30
- viability at 0.101 µM (T24 bladder cancer cells; T-24, 101 nM, 72 h, read-out: Cell survival at given concentration): 99%
- viability at 0.318 µM (T24 bladder cancer cells; T-24, 318 nM, 72 h, read-out: Cell survival at given concentration): 103%
- viability at 1 µM (T24 bladder cancer cells; T-24, 1 μM, 72 h, read-out: Cell survival at given concentration): 103%
- viability at 3 µM (T24 bladder cancer cells; T-24, 3 μM, 72 h, read-out: Cell survival at given concentration): 101%
- viability at 10 µM (T24 bladder cancer cells; T-24, 10 μM, 72 h, read-out: Cell survival at given concentration): 100%
- viability at 32 µM (T24 bladder cancer cells; T-24, 32 μM, 72 h, read-out: Cell survival at given concentration): 84%
- viability at 100 µM (T24 bladder cancer cells; T-24, 100 μM, 72 h, read-out: Cell survival at given concentration): 0%
- viability at 316 µM (T24 bladder cancer cells; T-24, 316 μM, 72 h, read-out: Cell survival at given concentration): 0%
- viability at 1000 µM (T24 bladder cancer cells; T-24, 1000 μM, 72 h, read-out: Cell survival at given concentration): 0%
- pIC50 (T24 bladder cancer cells; T-24, 72 h, Table 3.1, read-out: 1050): 4.40
- viability at 0.101 µM (AGS stomach cancer cells; 72 h, 101 nM, read-out: Cell survival at given concentration): 103%
- viability at 0.318 µM (AGS stomach cancer cells; 72 h, 318 nM, read-out: Cell survival at given concentration): 103%
- viability at 1 µM (AGS stomach cancer cells; 72 h, 1 μM, Table 10.1, read-out: Cell survival at given concentration): 108%
- viability at 3 µM (AGS stomach cancer cells; 72 h, 3 μM, Table 10.1, read-out: Cell survival at given concentration): 105%
- viability at 10 µM (AGS stomach cancer cells; 72 h, 10 μM, Table 10.1, read-out: Cell survival at given concentration): 104%
- viability at 32 µM (AGS stomach cancer cells; 72 h, 32 μM, Table 10.1, read-out: Cell survival at given concentration): 104%
- viability at 100 µM (AGS stomach cancer cells; 72 h, 100 μM, Table 10.1, read-out: Cell survival at given concentration): 107%
- viability at 316 µM (AGS stomach cancer cells; 72 h, 316 μM, read-out: Cell survival at given concentration): 80%
- viability at 1000 µM (AGS stomach cancer cells; 72 h, 1000 μM, read-out: Cell survival at given concentration): 8%
- pIC50 (AGS stomach cancer cells; Table 10.1): 3.32
- viability at 0.101 µM [2, 4]: 103%
- viability at 0.318 µM [2, 5]: 99%
- viability at 1 µM [2, 6]: 100%
- viability at 3 µM [2, 7]: 101%
- viability at 10 µM [2, 8]: 102%
- viability at 32 µM [2, 9]: 98%
- viability at 100 µM [2, 10]: 96%
- viability at 316 µM [2, 11]: 96%
- viability at 1000 µM [2, 12]: 36%
- pIC50 ([2]; Table 8.1): 3.05
- viability at 0.101 µM [3, 4]: 100%
- viability at 0.318 µM [3, 5]: 101%
- viability at 1 µM [3, 6]: 101%
- viability at 3 µM [3, 7]: 103%
- viability at 10 µM [3, 8]: 102%
- viability at 32 µM [3, 9]: 99%
- viability at 100 µM [3, 10]: 0%
- viability at 316 µM [3, 11]: 0%
- viability at 1000 µM [3, 12]: 0%
- pIC50 ([3]; Table 4.1): 4.32
- viability at 0.101 µM (MCF7 breast cancer cells; [4]): 93%
- viability at 0.318 µM (MCF7 breast cancer cells; [5]): 97%
- viability at 1 µM (MCF7 breast cancer cells; [6]): 97%
- viability at 3 µM (MCF7 breast cancer cells; [7]): 102%
- viability at 10 µM (MCF7 breast cancer cells; [8]): 92%
- viability at 32 µM (MCF7 breast cancer cells; [9]): 100%
- viability at 100 µM (MCF7 breast cancer cells; [10]): 90%
- viability at 316 µM (MCF7 breast cancer cells; [11]): 56%
- viability at 1000 µM (MCF7 breast cancer cells; [12]): 2%
- pIC50 (MCF7 breast cancer cells; Table 5.1): 3.45
- viability at 0.101 µM (A549 lung cancer cells; [4]): 98%
- viability at 0.318 µM (A549 lung cancer cells; [5]): 100%
- viability at 1 µM (A549 lung cancer cells; [6]): 100%
- viability at 3 µM (A549 lung cancer cells; [7]): 100%
- viability at 10 µM (A549 lung cancer cells; [8]): 94%
- viability at 32 µM (A549 lung cancer cells; [9]): 96%
- viability at 100 µM (A549 lung cancer cells; [10]): 94%
- viability at 316 µM (A549 lung cancer cells; [11]): 81%
- viability at 1000 µM (A549 lung cancer cells; [12]): 9%
- pIC50 (A549 lung cancer cells; Table 7.1): 3.19
